Measurements reported in paper PMC3050433, “The effects of maribavir on the autophosphorylation of ganciclovir resistant mutants of the cytomegalovirus UL97 protein” (Herpesviridae, 2010).
Positions count from the first letter of the chain named.

Tests used:
UL97 H662L = biological target: T1, UL97 H662L (Human cytomegalovirus, UniProt Q68101, H662L); assay: UL97 autophosphorylation protein kinase assay, H662L; format: biochemical; conditions: H662L mutant
T1 construct: PCR reaction to generate the full length UL97; honey bee melittin secretion signal (N); made in house; host or cells: Sf21 insect cells, recombinant baculovirus (pMelBac C)
T1 sequence (Q68101 1-707 H662L): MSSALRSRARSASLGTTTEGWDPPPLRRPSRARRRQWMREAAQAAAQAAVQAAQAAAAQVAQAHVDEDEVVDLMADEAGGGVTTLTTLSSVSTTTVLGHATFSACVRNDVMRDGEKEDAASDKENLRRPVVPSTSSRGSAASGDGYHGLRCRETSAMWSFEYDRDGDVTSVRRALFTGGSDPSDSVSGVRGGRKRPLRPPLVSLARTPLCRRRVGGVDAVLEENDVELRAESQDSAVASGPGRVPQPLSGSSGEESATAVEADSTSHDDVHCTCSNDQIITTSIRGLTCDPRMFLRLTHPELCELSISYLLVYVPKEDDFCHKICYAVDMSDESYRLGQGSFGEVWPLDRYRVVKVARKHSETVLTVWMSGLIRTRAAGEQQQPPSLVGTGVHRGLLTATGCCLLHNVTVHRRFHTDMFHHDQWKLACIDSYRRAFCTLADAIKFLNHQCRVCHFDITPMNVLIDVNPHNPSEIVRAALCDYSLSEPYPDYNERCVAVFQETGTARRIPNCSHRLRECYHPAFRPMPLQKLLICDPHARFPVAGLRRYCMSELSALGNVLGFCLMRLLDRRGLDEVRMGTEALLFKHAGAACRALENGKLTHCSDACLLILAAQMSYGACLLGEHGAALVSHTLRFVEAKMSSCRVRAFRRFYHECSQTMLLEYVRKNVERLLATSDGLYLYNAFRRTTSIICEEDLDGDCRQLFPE
Procedure: (§1) Analysis of the autophosphorylation of wild type and mutant UL97 protein species was performed by a standard protein kinase assay as previously described (46). Briefly, purified protein was added to 2× protein kinase buffer (100 mM Tris HCl, pH9.0, 20 mM MgCl2, 10 μM ATP, 4 mM DTT, 2 M NaCl) and 370 KBq [γ^32P] ATP (Amersham), made up to 20 μl with SDW and incubated at 37°C. The reactions were terminated by the addition of 2× SDS sample buffer followed by boiling for 3 minutes. The amount of radiolabelled phosphate incorporated by autophosphorylation was analysed by SDS-PAGE and measured using the Biorad Mulitanalyst. The protein kinase assays were initially performed for 2 to 60 minutes to determine the maximum rate of phosphate incorporation, all assays were then performed at the maximum rate which equated to 5 minutes.
(§2) Enzyme kinetic analysis was performed on the purified wild type and mutant UL97 protein species as above using increasing concentrations of ATP (2 μM to 20 μM). The amount of incorporated radiolabelled phosphate was plotted against the concentration of ATP in a Lineweaver Burke plot to determine the Km for ATP for each UL97 species. […]

UL97 D456A = biological target: T2, UL97 D456A (Human cytomegalovirus, UniProt Q68101, D456A); assay: UL97 autophosphorylation protein kinase assay, D456A; format: biochemical; conditions: D456A mutant
T2 construct: PCR reaction to generate the full length UL97; honey bee melittin secretion signal (N); made in house; host or cells: Sf21 insect cells, recombinant baculovirus (pMelBac C)
T2 sequence (Q68101 1-707 D456A): T1 sequence (Q68101 1-707 H662L) with D456A, L662H
Procedure: as §1, §2

In the case of CC(C)Nc1nc2cc(Cl)c(Cl)cc2n1[C@H]1O[C@@H](CO)[C@H](O)[C@@H]1O [maribavir, 5,6-dichloro-2-(isopropylamino)-1-beta-L-ribofuranosyl-1H-benzimidazole], the IC50 (UL97 H662L) is reported as 40 nM and the IC50 (UL97 D456A) is reported as 34 nM.
